Reference: US20250368633A1, “AZEPINE FUSED RING COMPOUND AS RIPK1 INHIBITOR AND USE THEREOF” (ARTIVILA BIOPHARMA, priority 2022, published 2025)

Assays:
[1] = test system: U937 cells; test: EC50 of necroptosis inhibition in U937 cells (TSZ-induced, CellTiter-Glo); assay type: cell-based; settings: Homo sapiens, U-937; TSZ (hTNF-α, SM-164, Z-VAD-FMK) 20 hours; 10 concentration points; read-out: EC50 intervals of necroptosis inhibition in U937 cells
How it was run: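 Luminescent ATP readout (CellTiter-Glo) after 20 h gave viability of TSZ-challenged U937 cells; compounds were added 15 min ahead of TNF-α/SM-164/Z-VAD-FMK. EC50 derived by variable-slope nonlinear regression of inhibition relative to no-TSZ and TSZ-alone controls.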

[2] = test system: U937 cells; test: Inhibition rate of compound (1 μM) on necroptosis of U937 cells (TSZ-induced, CellTiter-Glo); assay type: cell-based; settings: TSZ (hTNF-α, SM-164, Z-VAD-FMK) 20 hours
How it was run: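 Percent inhibition comes from ATP luminescence (CellTiter-Glo), referenced to wells without TSZ and wells with TSZ alone. The compound was added to U937 cells 15 min ahead of a TNF-α/SM-164/Z-VAD-FMK mix, followed by 20 h culture at 37° C, 5% CO2.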

[3] = molecular target: T1, RIPK1 kinase (Homo sapiens, UniProt Q13546); test: In vitro RIPK1 kinase activity IC50 assay (ADP-Glo); assay type: biochemical; settings: ATP 10 μM; MBP substrate 100 μg/mL; 8 concentration points; read-out: IC50 range of compounds for RIPK1 kinase activity
T1 construct: purchased Promega VA7593
T1 sequence (Q13546 1-671): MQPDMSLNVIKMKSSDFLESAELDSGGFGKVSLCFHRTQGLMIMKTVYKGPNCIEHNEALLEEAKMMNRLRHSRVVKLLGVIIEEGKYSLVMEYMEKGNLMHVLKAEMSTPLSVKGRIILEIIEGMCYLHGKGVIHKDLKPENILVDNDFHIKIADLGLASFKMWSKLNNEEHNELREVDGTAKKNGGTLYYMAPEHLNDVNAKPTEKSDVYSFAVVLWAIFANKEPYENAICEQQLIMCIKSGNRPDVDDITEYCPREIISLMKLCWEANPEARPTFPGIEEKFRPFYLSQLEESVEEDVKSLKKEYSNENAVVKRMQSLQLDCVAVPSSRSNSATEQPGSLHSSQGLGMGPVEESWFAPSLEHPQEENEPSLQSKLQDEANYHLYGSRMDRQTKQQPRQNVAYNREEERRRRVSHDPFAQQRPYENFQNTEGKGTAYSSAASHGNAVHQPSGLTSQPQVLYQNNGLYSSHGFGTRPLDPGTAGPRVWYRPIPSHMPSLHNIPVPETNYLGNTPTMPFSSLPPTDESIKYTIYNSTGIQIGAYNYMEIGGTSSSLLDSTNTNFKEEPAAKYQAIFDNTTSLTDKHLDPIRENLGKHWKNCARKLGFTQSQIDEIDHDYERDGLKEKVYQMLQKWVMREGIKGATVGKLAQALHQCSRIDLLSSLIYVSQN
Method: RIPK1 kinase activity was assayed using the ADP-Glo assay and RIPK1 kinase reaction system (Promega, catalog number: VA7593). The RIPK1 kinase activity assay was performed according to the Promega kit manual.
The experimental method was briefly described as below. The concentration of RIPK1 kinase in the RIPK1 kinase reaction system was determined by kinase titration and S/B10. The compound was diluted with 1× kinase buffer D (1% DMSO), 1 μL of 1 mM compound DMSO stock solution was added to 19 μL 1× kinase buffer D, and the compound was serially diluted with 1× kinase buffer D at a ratio of 1:5, for a total of 8 concentration points, and a control with the same DMSO volume was set. RIPK1 kinase was diluted with 1× kinase buffer D. 2.5×ATP/substrate was diluted with 1× kinase buffer D. The final concentration of ATP in the kinase reaction system was 10 μM. The final concentration of MBP substrate was 100 μg/mL. 1 μL of diluted compound and 2 μL of diluted RIPK1 kinase were mixed, incubated at room temperature for 15 minutes, 2 μL of 2.5×ATP/substrate was added, mixed, and incubated at room temperature for 1 hour. 5 μL ADP-Glo reagent was added to each well and incubated at room temperature for 1 hour. 10 μL ADP detection reagent was added to each well and incubated at room temperature for another 0.5-1 hour. The chemiluminescent signal was read with a microplate reader and the kinase activity inhibition rate was calculated. IC50 was obtained by fitting the nonlinear regression curve log [inhibitor] vs. response-variable slope (four parameters) in GraphPad Prism.

IC50 [3]: < 100 nM
Structure (SMILES): C[C@@H](NC(=O)C(=O)N[C@H]1COc2ccc(C#CCCO)cc2N(C)C1=O)c1ccccc1 [Example 125, N^1-((S)-7-(4-hydroxybut-1-yn-1-yl)-5-methyl-4-oxo-2,3,4,5-tetrahydrobenzo[b][1,4]oxazepin-3-yl)-N^2-((R)-1-phenylethyl)oxalamide]
EC50 [1]: < 100 nM
Inhibition rate range of compounds (1 μM) on U937 cell necroptosis [2]: A (A: ≥90%)
